Experimental data reported in US20080171051A1, “Cancer Treatment” (priority 2003, published 2008).

Assays:
[1] = test system: c-FLIPL-overexpressing HCT116p53+/+ cell lines (HFL17, HFL24); assay: Growth inhibition (MTT) in c-FLIPL-overexpressing HCT116p53+/+ cell lines versus HLacZ; assay type: cell-based, human
Procedure: (§1) Cell Viability Assays. […] To investigate drug-induced Fas-mediated apoptosis, cells were seeded at 2,000-5,000 cells per well on 96-well plates. […] To assess chemotherapy/siRNA interactions, 20,000-50,000 cells were seeded per well on 24-well plates. Twenty-four hours later, the cells were transfected with FLIP-targeted (FT) or scrambled siRNA (SC). […] MTT (0.5 mg/ml) was added to each well and the cells were incubated at 37° C. for a further 2 hours. The culture medium was removed and formazan crystals reabsorbed in 200 μl (96-well) or 1 ml (24-well) DMSO. Cell viability was determined by reading the absorbance of each well at 570 nm using a microplate reader (Molecular Devices, Wokingham, England).

HCT116p53+/+ cells [2] = assay: MTT cell viability assay, HCT116 p53 wild type cells; assay type: cell-based, human; details: for IC60(72h) dose: HCT116p53+/+ cells; for synergy with CH-11 (RI from MTT): HCT116 p53 wild-type, drug 24 hours then CH-11 200 ng/ml for 48 hours; for effect on cell viability: HCT116 cells, presence or absence of drug
Procedure: as §1
(§2) siRNA transfections. FLIP-targeted siRNA was designed using the Ambion siRNA target finder and design tool (www.ambion.com/techlib/misc/siRNA_finder.html) to inhibit both splice variants of c-FLIP. Both c-FLIP-targeted (FT) and scrambled control (SC) siRNA were obtained from Xeragon (Germantown, Md.).
(§3) Statistical Analyses. The nature of the interaction between the chemotherapeutic drugs and FLIP-targeted siRNAs was determined by calculating the combination index (CI) according to the method of Chou and Talalay (14). CI values were calculated from isobolograms generated using the CalcuSyn software programme (Microsoft Windows). […] An unpaired two-tailed t test was used to determine the significance of changes in levels of apoptosis between different treatment groups.

HCT116p53-/- cells [3] = assay: Flow cytometric analysis of apoptosis, HCT116p53-/- cells; assay type: cell-based, human; details: for cells in the sub-G0/G1 fraction (apoptosis): HCT116p53-/- cells, 1 nM siRNA, no drug, 5 μM 5-FU, 5 μM oxaliplatin or 1 μM CPT-11, 72 hours
Procedure: (§4) Flow Cytometric Analysis. Cells were seeded at 1×10^5 per well of a 6-well tissue culture plate. […] DNA content of harvested cells was evaluated after propidium iodide staining of cells using the EPICS XL Flow Cytometer (Coulter, Miami, Fla.).
(§5) siRNA transfections. FLIP-targeted siRNA was designed using the Ambion siRNA target finder and design tool (www.ambion.com/techlib/misc/siRNA_finder.html) to inhibit both splice variants of c-FLIP. Both c-FLIP-targeted (FT) and scrambled control (SC) siRNA were obtained from Xeragon (Germantown, Md.). The FT siRNA sequence used was: […]. The FL siRNA sequence used was: […]. The control non-silencing siRNA sequence (SC) used was: […]. siRNA transfections were performed on sub-confluent cells incubated in Optimem medium using the oligofectamine reagent (both from Life Technologies Inc) according to the manufacturer's instructions.

HCT116p53-/- cells [4] = assay: MTT cell viability assay, HCT116 p53 null cells; assay type: cell-based, human; details: for synergy with CH-11 (RI from MTT): HCT116 p53 null, drug 24 hours then CH-11 200 ng/ml for 48 hours
Procedure: as §1, §2, §3

HCT116p53+/+ cells [5] = assay: Flow cytometric analysis of apoptosis, HCT116p53+/+ cells; assay type: cell-based, human; details: for cells in the sub-G0/G1 apoptotic fraction: 0.5 nM siRNA, no drug, 5 μM 5-FU or 1 μM oxaliplatin for 48 hours
Procedure: as §4, §5

c-FLIP [6] = assay: Western blot of c-FLIP expression after siRNA transfection, HCT116p53+/+ cells; assay type: cell-based, human; details: for down-regulation of c-FLIP expression: nanomolar concentrations
Procedure: (§6) Western Blotting. Western blots were performed as previously described (Longley et al., 2002). The Fas/CD95, Bcl-2 and BID (Santa Cruz Biotechnology, Santa Cruz, Calif.), caspase 8 (Oncogene Research Products, Darmstadt, Germany), PARP (Pharmingen, BD Biosciences, Oxford, England), c-FLIP (NF-6, Alexis, Bingham UK) DcR3 (Imgenex, San Diego, Calif.) mouse monoclonal antibodies were used in conjunction with a horseradish peroxidase (HRP)-conjugated sheep anti-mouse secondary antibody (Amersham, Little Chalfont, Buckinghamshire, England). FasL rabbit polyclonal antibody (Santa Cruz Biotechnology) was used in conjunction with an HRP-conjugated donkey anti-rabbit secondary antibody (Amersham). Equal loading was assessed using a β-tubulin mouse monoclonal primary antibody (Sigma).
siRNA transfections. FLIP-targeted siRNA was designed using the Ambion siRNA target finder and design tool (www.ambion.com/techlib/misc/siRNA_finder.html) to inhibit both splice variants of c-FLIP. Both c-FLIP-targeted (FT) and scrambled control (SC) siRNA were obtained from Xeragon (Germantown, Md.). The FT siRNA sequence used was: AAGCAGTCTGTTCAAGGAGCA. The FL siRNA sequence used was: AAGGAACAGCTTGGCGCTCAA. The control non-silencing siRNA sequence (SC) used was: AATTCTCCGAACGTGTCACGT. siRNA transfections were performed on sub-confluent cells incubated in Optimem medium using the oligofectamine reagent (both from Life Technologies Inc) according to the manufacturer's instructions.

[7] = adjuvant setting of colorectal cancer; cited from earlier work
Fas death receptor = Fas death receptor (UniProt P25445); assay: cell-based or functional assay
Fas death receptor, sequence (P25445 26-335 limits assumed): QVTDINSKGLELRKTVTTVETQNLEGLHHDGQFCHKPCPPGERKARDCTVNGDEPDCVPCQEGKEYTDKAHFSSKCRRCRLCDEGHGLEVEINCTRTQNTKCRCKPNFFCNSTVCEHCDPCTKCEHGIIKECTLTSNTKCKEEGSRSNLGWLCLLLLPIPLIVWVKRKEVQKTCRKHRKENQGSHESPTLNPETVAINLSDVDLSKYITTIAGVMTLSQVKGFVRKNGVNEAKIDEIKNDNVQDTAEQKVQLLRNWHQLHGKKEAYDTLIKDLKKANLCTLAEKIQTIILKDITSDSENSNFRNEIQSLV

Fas = assay: Western blot analysis of Fas expression in MCF-7 cells; assay type: cell-based; details: 72 hours after IC60 dose
Procedure: as §6

HFL24 cells = assay: Flow cytometric analysis of apoptosis, HFL24 cells (c-FLIPL-overexpressing HCT116); assay type: cell-based, human; details: 5 μM 5-FU for 72 hours
Procedure: (§7) Generation of c-FLIP overexpressing cell lines. c-FLIPL and c-FLIPS coding regions were PCR amplified and ligated into the pcDNA/V5-His TOPO vector according to the manufacturer's instructions (Life Technologies Inc.). HCT116p53^+/+ cells were co-transfected with 10 μg of each c-FLIP expression construct and 1 μg of a construct expressing a puromycin resistance gene (pIRESpuro3, Clontech) using GeneJuice. Stably transfected HCT116 cells were selected and maintained in medium supplemented with 1 μg/ml puromycin (Life Technologies Inc.). Stable overexpression of c-FLIP was assessed by Western blot analysis.
as §4

HLacZ cell line = assay: Flow cytometric analysis of apoptosis, HLacZ control cell line; assay type: cell-based, human; details: 5 μM 5-FU for 72 hours
Procedure: as §7, §4

HFL17 cells = assay: Flow cytometric analysis of apoptosis, HFL17 cells (c-FLIPL-overexpressing HCT116); assay type: cell-based, human; details: 5 μM 5-FU for 72 hours
Procedure: as §7, §4

[8] = patients with metastatic colorectal cancer; cited from earlier work
c-FLIP [9] = assay: Western blot of c-FLIP expression after siRNA transfection, HCT116p53-/- cells; assay type: cell-based, human; details: 1 nM FT siRNA
Procedure: as §6
(§8) siRNA transfections. FLIP-targeted siRNA was designed using the Ambion siRNA target finder and design tool (www.ambion.com/techlib/misc/siRNA_finder.html) to inhibit both splice variants of c-FLIP. Both c-FLIP-targeted (FT) and scrambled control (SC) siRNA were obtained from Xeragon (Germantown, Md.). The FT siRNA sequence used was: AAGCAGTCTGTTCAAGGAGCA. The FL siRNA sequence used was: AAGGAACAGCTTGGCGCTCAA. […]

c-FLIP [10] = assay: Western blot of c-FLIP expression after siRNA transfection, MCF-7 cells; assay type: cell-based; details: 10 nM FT siRNA
Procedure: as §6, §8

c-FLIP [11] = assay: Western blot of c-FLIP expression after siRNA transfection, H630 cells; assay type: cell-based; details: 1 nM, 24 hours
Procedure: as §6, §8

c-FLIP [12] = assay: Western blot of c-FLIP expression after siRNA transfection, RKO cells; assay type: cell-based; details: 1 nM, 24 hours
Procedure: as §6, §8

RKO cells = assay: MTT cell viability assay, RKO cells; assay type: cell-based; details: absence of chemotherapy, read-out: IC50(72h) dose
Procedure: as §1, §2
(§9) Statistical Analyses. The nature of the interaction between the chemotherapeutic drugs and FLIP-targeted siRNAs was determined by calculating the combination index (CI) according to the method of Chou and Talalay (14). CI values were calculated from isobolograms generated using the CalcuSyn software programme (Microsoft Windows). […]

H630 cells = assay: MTT cell viability assay, H630 cells; assay type: cell-based; details: absence of chemotherapy, read-out: IC50(72h) dose
Procedure: as §1, §2, §9

MCF-7 cells = assay type: cell-based; details: alone or in combination with 5-FU (data not shown)
Procedure: Cell Viability Assays. […] To assess chemotherapy/siRNA interactions, 20,000-50,000 cells were seeded per well on 24-well plates. Twenty-four hours later, the cells were transfected with FLIP-targeted (FT) or scrambled siRNA (SC). Four hours after transfection, the cells were treated with a range of concentrations of each drug for a further 72-96 hours. MTT (0.5 mg/ml) was added to each well and the cells were incubated at 37° C. for a further 2 hours. […] FLIP-targeted siRNA was designed using the Ambion siRNA target finder and design tool (www.ambion.com/techlib/misc/siRNA_finder.html) to inhibit both splice variants of c-FLIP. Both c-FLIP-targeted (FT) and scrambled control (SC) siRNA were obtained from Xeragon (Germantown, Md.). The FT siRNA sequence used was: [NT] The FL siRNA sequence used was: [NT] The control non-silencing siRNA sequence (SC) used was: [NT] siRNA transfections were performed on sub-confluent cells incubated in Optimem medium using the oligofectamine reagent (both from Life Technologies Inc) according to the manufacturer's instructions.

O=C1[O][Pt]2([NH][C@@H]3CCCC[C@H]3[NH]2)[O]C1=O [OXA, oxaliplatin]
increase in the IC50(72h) dose caused by c-FLIPL overexpression [1]: 1.7-2.0 fold | IC60(72h) dose (HCT116p53+/+ cells [2]): 1000 nM

CCc1c2c(nc3ccc(OC(=O)N4CCC(N5CCCCC5)CC4)cc13)-c1cc3c(c(=O)n1C2)COC(=O)[C@]3(O)CC [CPT-11, irinotecan]
synergy with CH-11 (propidium iodide staining) (HCT116p53-/- cells [3]; HCT116 p53 null, drug 24 hours then CH-11 50 ng/ml 24 hours): significant synergy | synergy with CH-11 (RI from MTT) (HCT116p53+/+ cells [2]): significant synergy | synergy with CH-11 (RI from MTT) (HCT116p53-/- cells [4]): synergy

FL siRNA: siRNA specifically down-regulating c-FLIPL; sequence AAGGAACAGCTTGGCGCTCAA (AAGGAACAGCTTGGCGCTCAA; listed as DNA, chemistry not given here)
apoptosis in the absence of chemotherapy (HCT116p53+/+ cells [5]; PARP cleavage and flow cytometry (data not shown)): induced apoptosis | down-regulation of c-FLIP expression (c-FLIP [6]): specifically down-regulate the long splice form without affecting expression of c-FLIPS

5-FU/leucovorin
3-year survival [7]: 72.9%

agonistic Fas monoclonal antibody CH-11
cells in the sub-G1/G0 apoptotic phase (flow cytometry, MCF-7, 5-FU 72 h then 250 ng/ml CH-11 24 h) (Fas death receptor): 55% | cells in the sub-G1/G0 apoptotic phase (flow cytometry, MCF-7, OXA then CH-11) (Fas death receptor): 50% | cells in the sub-G1/G0 apoptotic phase (flow cytometry, MCF-7, TDX 72 h then 250 ng/ml CH-11 24 h) (Fas death receptor): 60%

Cc1nc2ccc(CN(C)c3ccc(C(=O)N[C@@H](CCC(=O)O)C(=O)O)s3)cc2c(=O)[nH]1 [TDX, tomudex]
up-regulation of Fas expression (Fas): ~7 fold | synergy with CH-11 (RI from MTT) (HCT116p53+/+ cells [2]): significant synergy | synergy with CH-11 (RI from MTT) (HCT116p53-/- cells [4]): synergy

O=c1[nH]cc(F)c(=O)[nH]1 [5-FU]
cells in the sub-G1/G0 apoptotic fraction (HFL24 cells): ~17% | cells in the sub-G1/G0 apoptotic fraction (HLacZ cell line): ~41% | cells in the sub-G1/G0 apoptotic fraction (HFL17 cells): ~15% | up-regulation of Fas expression (Fas): ~12 fold | response rates [8]: 10-15% | IC60(72h) dose (HCT116p53+/+ cells [2]): 5000 nM

FT siRNA: siRNA inhibiting both splice variants of c-FLIP; sequence AAGCAGTCTGTTCAAGGAGCA (AAGCAGTCTGTTCAAGGAGCA; chemistry not given here)
down-regulation of c-FLIP expression (c-FLIP [9]): effectively down-regulated | cells in the sub-G0/G1 apoptotic fraction (HCT116p53+/+ cells [5]): ~26% | down-regulation of c-FLIP expression (c-FLIP [6]): potently down-regulated expression of both c-FLIP splice variants | time at which both c-FLIP splice forms were efficiently down-regulated (c-FLIP [6]; post-transfection, 1 and 10 nM FT siRNA): 8 h | down-regulation of c-FLIP expression (c-FLIP [10]): potently down-regulated expression of both c-FLIP splice variants | cells in the sub-G0/G1 fraction (apoptosis) (HCT116p53-/- cells [3]): ~14% | down-regulation of c-FLIP protein (c-FLIP [11]): down-regulated c-FLIP protein | down-regulation of c-FLIP protein (c-FLIP [12]): down-regulated c-FLIP protein | IC50 (RKO cells): ~5 nM | IC50 (HCT116p53+/+ cells [2]; HCT116 p53 wild type cells, absence of chemotherapy, read-out: IC50(72h) dose): ~0.7 nM | IC50 (H630 cells): ~25 nM | IC50 (HCT116p53-/- cells [4]; HCT116 p53 null cells, absence of chemotherapy, read-out: IC50(72h) dose): ~2.5 nM

SC siRNA: control non-silencing siRNA; sequence AATTCTCCGAACGTGTCACGT (AATTCTCCGAACGTGTCACGT; chemistry not given here)
cells in the sub-G0/G1 apoptotic fraction (HCT116p53+/+ cells [5]): ~9% | cells in the sub-G0/G1 fraction (apoptosis) (HCT116p53-/- cells [3]): ~9% | effect on cell viability (MCF-7 cells): no effect on cell viability | effect on cell viability (HCT116p53+/+ cells [2]): no significant effect on cell viability | effect on cell viability (HCT116p53+/+ cells [2]; listed as Control siRNA): no effect on cell viability
